Drawing on patent US8138377B2, “Arylbicyclo[3.1.0]hexylamines and methods and compositions for their preparation and use” (DOV Pharmaceutical, Inc., priority 2007, dated 2012), this text covers IC50 and inhibition for 1 compound.

In experiment [1] the target is T1, serotonin (5-HT) transport (Rattus norvegicus, UniProt P31652).
T1 construct: synaptosomal preparations were made from either whole brain (5-HT), striatum (DA) or hypothalamus (NE); from tissue; host or cells: rat whole brain synaptosomes
T1 sequence (P31652 whole entry): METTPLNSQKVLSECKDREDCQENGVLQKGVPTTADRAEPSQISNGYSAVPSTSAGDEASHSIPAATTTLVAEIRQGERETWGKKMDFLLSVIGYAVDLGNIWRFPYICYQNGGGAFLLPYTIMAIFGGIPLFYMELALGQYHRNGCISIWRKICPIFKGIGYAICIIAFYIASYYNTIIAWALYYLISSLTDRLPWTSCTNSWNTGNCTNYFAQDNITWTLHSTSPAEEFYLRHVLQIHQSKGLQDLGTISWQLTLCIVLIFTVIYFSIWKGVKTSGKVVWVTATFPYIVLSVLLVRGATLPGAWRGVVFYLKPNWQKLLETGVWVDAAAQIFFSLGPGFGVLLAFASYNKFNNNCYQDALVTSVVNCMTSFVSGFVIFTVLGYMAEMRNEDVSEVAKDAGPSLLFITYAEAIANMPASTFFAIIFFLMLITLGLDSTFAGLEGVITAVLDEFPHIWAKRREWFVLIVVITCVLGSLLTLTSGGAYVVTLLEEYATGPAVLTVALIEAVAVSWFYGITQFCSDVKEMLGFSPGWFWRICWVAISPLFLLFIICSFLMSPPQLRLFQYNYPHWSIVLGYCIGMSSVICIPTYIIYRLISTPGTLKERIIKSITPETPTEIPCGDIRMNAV
The experiment in a line: biochemical. On the procedure:
(§1) The effects of arylbicyclo[3.1.0]hexylamines of the invention for inhibiting transport of norepinephrine (NE) and/or dopamine (DA) and/or serotonin (5-HT) were evaluated using preparations of synaptosomes from different regions of the rat brain according to previously-reported techniques.
(§2) Whole brains were obtained from normal rats, and synaptosomal preparations were made from either whole brain (5-HT), striatum (DA) or hypothalamus (NE) by gentle disruption in 10 volumes (w/v) of 0.32 M sucrose (0-4° C.) using a Teflon-glass homogenizer. The homogenate was then centrifuged at 1000×g for 10 min. The supernatant was retained and centrifuged at 23000 g for 20 min. The resulting pellet was gently resuspended in 200 volumes of 0.32 M sucrose (0-4° C.) using a teflon-glass homogenizer. Aliquots (250 μL) of this preparation were added to tubes, along with 0.2 μCi/mL of [^3H]5-HT, [^3H]DA, or [^3H]NE, 200 μL of selected 1-arylbicyclo[3.1.0]hexanamine test compounds (to yield final concentrations of 500 nM) and 1 mL of Krebs-Ringer bicarbonate buffer (pH 7.4). […] At the end of this period, the assay was terminated by rapid filtration over Whatman GF/C glass fiber filters. The filters were rinsed 3 times with 4 ml of Krebs-Ringer bicarbonate buffer (0-4° C.), and the radioactivity retained on the filters was measured by liquid scintillation spectrometry.

Another experiment deals with T2, dopamine (DA) transport (Rattus norvegicus, UniProt P23977).
T2 construct: synaptosomal preparations were made from either whole brain (5-HT), striatum (DA) or hypothalamus (NE); from tissue; host or cells: rat striatum synaptosomes
T2 sequence (P23977 whole entry): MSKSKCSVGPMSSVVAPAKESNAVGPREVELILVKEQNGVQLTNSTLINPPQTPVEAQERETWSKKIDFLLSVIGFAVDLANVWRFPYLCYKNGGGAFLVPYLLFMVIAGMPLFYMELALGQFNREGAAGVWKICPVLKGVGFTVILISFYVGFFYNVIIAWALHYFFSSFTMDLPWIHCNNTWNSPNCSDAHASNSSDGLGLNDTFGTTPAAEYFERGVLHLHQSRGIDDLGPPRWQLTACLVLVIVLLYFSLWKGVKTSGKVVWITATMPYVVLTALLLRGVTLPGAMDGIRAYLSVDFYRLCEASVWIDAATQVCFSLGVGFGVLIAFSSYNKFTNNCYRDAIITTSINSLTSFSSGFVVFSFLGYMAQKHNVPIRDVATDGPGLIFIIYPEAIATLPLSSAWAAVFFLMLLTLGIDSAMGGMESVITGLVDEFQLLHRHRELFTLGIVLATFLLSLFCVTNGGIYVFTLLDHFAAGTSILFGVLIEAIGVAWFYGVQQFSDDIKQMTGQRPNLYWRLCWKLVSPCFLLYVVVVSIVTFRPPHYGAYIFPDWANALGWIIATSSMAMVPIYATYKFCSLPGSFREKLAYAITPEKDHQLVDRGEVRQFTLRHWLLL
The experiment in a line: biochemical. Here is the method: as §1, §2

Experiment [2] deals with T3, norepinephrine (NE) transport (Rattus norvegicus, UniProt Q63380).
T3 construct: synaptosomal preparations were made from either whole brain (5-HT), striatum (DA) or hypothalamus (NE); from tissue; host or cells: rat hypothalamus synaptosomes
T3 sequence (Q63380 1-617): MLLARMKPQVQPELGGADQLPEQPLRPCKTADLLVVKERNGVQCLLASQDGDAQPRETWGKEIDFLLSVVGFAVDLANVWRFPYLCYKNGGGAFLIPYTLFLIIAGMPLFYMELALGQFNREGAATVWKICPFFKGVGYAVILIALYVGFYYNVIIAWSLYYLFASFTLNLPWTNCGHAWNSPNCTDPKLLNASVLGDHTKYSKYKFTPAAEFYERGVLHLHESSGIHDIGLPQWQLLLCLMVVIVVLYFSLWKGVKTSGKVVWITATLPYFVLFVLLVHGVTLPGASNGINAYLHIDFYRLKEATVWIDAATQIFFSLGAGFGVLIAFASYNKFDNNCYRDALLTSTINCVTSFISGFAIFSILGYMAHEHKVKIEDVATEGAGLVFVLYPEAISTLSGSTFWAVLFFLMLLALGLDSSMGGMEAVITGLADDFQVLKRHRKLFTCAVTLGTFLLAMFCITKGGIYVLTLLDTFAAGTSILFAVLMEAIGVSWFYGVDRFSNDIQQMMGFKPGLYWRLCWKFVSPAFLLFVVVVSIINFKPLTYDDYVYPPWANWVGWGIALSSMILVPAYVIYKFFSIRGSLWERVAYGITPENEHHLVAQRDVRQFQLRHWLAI
The experiment in a line: Inhibition of [3H]NE uptake in rat hypothalamus synaptosomes. It is filed as biochemical. Here is the method: as §1, §2

Take `CNC1CC2CC2(c2cccc3ccccc23)C1` (stereo not drawn): the IC50 is 0.076 µM in experiment [1], 8.73 µM against dopamine (DA) transport and 74 nM in experiment [2]. The inhibition at 0.5 µM in experiment [1] (read-out: Uptake Inhibition % at 500 nM 5-HT) came out at 82%; on dopamine (DA) transport (read-out: Uptake Inhibition % at 500 nM DA), 23%; in experiment [2] (500 nM, 20 min, 37° C.), 81%.

Broadly, the IC50 is the concentration that inhibits the measured activity by half. A high value points to weaker potency. One may read the inhibition as the relative decrease from the control value, in per cent.
